Laboratory results as given in publication PMC7822874, “Chemoprotective antimalarials identified through quantitative high-throughput screening of Plasmodium blood and liver stage parasites” (Scientific Reports, 2021).
Like-named read-outs stand apart in the source and are kept apart here.

Legend:
[1] = system: P. berghei-ANKA-GFP-LucCON liver stage parasites in HepG2-A16-CD81EGFP cells; assay: P. berghei liver stage Pb-Luc assay, Method 1 (UCSD, 1536-well); format: cell-based, Plasmodium berghei; details: for activity at 1 µM / activity at 3 µM / AC50: Plasmodium berghei; for activity at 1 µM / activity at 3 µM: 48 h, average of 2 wells on a 1536 well plate
[2] = system: Plasmodium falciparum Dd2 asexual blood stage parasites; assay: microbe, parasite or virus in culture; design: species or system Plasmodium falciparum Dd2 in human erythrocytes; single determination (one 11-point concentration-response curve); details: Plasmodium falciparum, DD2, Erythrocyte, 72 h; read-out: AC50
HepG2-A16-CD81EGFP cells = details: average of 2 wells; for HepG2 1uM growth rep1 / HepG2 1uM growth rep2: HepG2, 1 µM compound treatment (10 mM stocks); for HepG2 1uM growth rep1 / HepG2 3uM growth rep1: replicate 1, normalized; for HepG2 1uM growth rep2 / HepG2 3uM growth rep2: replicate 2, normalized; for HepG2 3uM growth rep1 / HepG2 3uM growth rep2: HepG2, 3 µM compound treatment (10 mM stocks)
HepG2 = details: human, hepg2 cells, 48 h
in vitro [3] = details: human, hepg2 cells
in vitro [4] = details: human
[5] = P. berghei liver stage, 1 µM compound treatment (10 mM stocks), replicate 1, normalized, read-out: PbLuc 1uM growth rep1
[6] = P. berghei liver stage, 1 µM compound treatment (10 mM stocks), replicate 2, normalized, read-out: PbLuc 1uM growth rep2
[7] = P. berghei liver stage, 3 µM compound treatment (10 mM stocks), replicate 1, normalized, read-out: PbLuc 3uM growth rep1
[8] = P. berghei liver stage, 3 µM compound treatment (10 mM stocks), replicate 2, normalized, read-out: PbLuc 3uM growth rep2
[9] = 1 uM (compounds provided at 10 mM), column 11, read-out: Pb-Luc (P. berghei liver stage), % of control, lower concentration, first repeat
[10] = 1 uM (compounds provided at 10 mM), column 12, read-out: Pb-Luc (P. berghei liver stage), % of control, lower concentration, second repeat
[11] = 3 uM (compounds provided at 10 mM), column 8, read-out: Pb-Luc (P. berghei liver stage), % of control, higher concentration, first repeat
[12] = 3 uM (compounds provided at 10 mM), column 9, read-out: Pb-Luc (P. berghei liver stage), % of control, higher concentration, second repeat
[13] = HepG2-A16-CD81EGFP cells, uninfected

Row | SMILES | AC50 [2] | Log AC50 (M) (HepG2) | CC50 at 48 h (in vitro [3]) | activity at 1 µM [1, 9] | activity at 1 µM [1, 10] | activity at 3 µM [1, 11] | activity at 3 µM [1, 12] | viability at 48 h, 1 µM (in vitro [4]; [13]) | viability at 48 h, 3 µM (in vitro [4]; [13]) | also measured
1 | CC1(C)Cc2ccccc2C2=NNC(=O)C2=N1 [MLS000709658-01] | 3.35 µM | -4.4643 M | 34.3 µM |  |  |  |  |  |  | activity at 1 µM [1, 5]: 117%; activity at 1 µM [1, 6]: 83%; activity at 3 µM [1, 7]: 68%; activity at 3 µM [1, 8]: 64%; HepG2 1uM growth rep1 (HepG2-A16-CD81EGFP cells): 98%; HepG2 1uM growth rep2 (HepG2-A16-CD81EGFP cells): 96%; HepG2 3uM growth rep1 (HepG2-A16-CD81EGFP cells): 90%; HepG2 3uM growth rep2 (HepG2-A16-CD81EGFP cells): 99%
2 | Cc1cc(N)c2cc(NC(=O)/C=C/c3ccccc3Cl)ccc2n1 [MLS000737665-01] | 1.88 µM | -4.3643 M | 43.2 µM | 86% | 67% | 21% | 37% | 105% | 108% | 
3 | ClC(Cl)(Cl)c1nc2ccccc2n2nncc12 [MLS001171504-01] | 2.11 µM | -4.3643 M | 43.2 µM | 113% | 83% | 87% | 102% | 106% | 95% | 
4 | O=C1NC(=S)S/C1=C\C=C\c1ccc([N+](=O)[O-])o1 [MLS000722913-01] | 5.31 µM | -4.8643 M | 13.7 µM | 80% | 77% | 57% | 67% | 112% | 101% | 
5 | C/C(=N\Nc1ncnc2sc(C)c(C)c12)c1ccccn1 [MLS001176565-01] | 1.33 µM | -6.3143 M | 0.485 µM |  |  |  |  |  |  | activity at 1 µM [1, 5]: 11%; activity at 1 µM [1, 6]: 8%; activity at 3 µM [1, 7]: 6%; activity at 3 µM [1, 8]: 5%; HepG2 1uM growth rep1 (HepG2-A16-CD81EGFP cells): 55%; HepG2 1uM growth rep2 (HepG2-A16-CD81EGFP cells): 50%; HepG2 3uM growth rep1 (HepG2-A16-CD81EGFP cells): 36%; HepG2 3uM growth rep2 (HepG2-A16-CD81EGFP cells): 44%
6 | Cc1cccc(-c2cc3nc(C)c(C)c(NCCCn4ccnc4)n3n2)c1 [MLS000529525-01] | 5.31 µM | -4.3143 M | 48.5 µM |  |  |  |  |  |  | activity at 1 µM [1, 5]: 138%; activity at 1 µM [1, 6]: 123%; activity at 3 µM [1, 7]: 94%; activity at 3 µM [1, 8]: 144%; HepG2 1uM growth rep1 (HepG2-A16-CD81EGFP cells): 101%; HepG2 1uM growth rep2 (HepG2-A16-CD81EGFP cells): 92%; HepG2 3uM growth rep1 (HepG2-A16-CD81EGFP cells): 82%; HepG2 3uM growth rep2 (HepG2-A16-CD81EGFP cells): 93%
7 | COc1ccc2nc3cc(Cl)ccc3c(Nc3cc(C(C)C)c(O)cc3C)c2c1 [MLS000737404-01] | 0.266 µM | -4.3643 M | 43.2 µM | 113% | 97% | 61% | 53% | 112% | 95% | 
8 | Cc1cc(Cl)c(S(=O)(=O)N2CCN(c3ccccn3)CC2)cc1OCC(=O)NC1CCCCC1 [MLS000693481-01] | 0.668 µM | -4.5643 M | 27.3 µM | 102% | 96% | 68% | 80% | 91% | 105% | 
9 | Cc1cccc(NC2=C/C(=N\S(=O)(=O)c3cccs3)c3ccccc3C2=O)c1 [MLS000585840-01] | 0.168 µM | -4.4643 M | 34.3 µM | 90% | 90% | 37% | 41% | 113% | 95% | 
10 | N=c1c2c(n(Cc3ccc(F)cc3)c3c1CCC3)CCCC2 [MLS000856097-01] | 2.99 µM | -4.7643 M | 17.2 µM | 60% | 59% | 19% | 15% | 105% | 81% | 
11 | COc1ccccc1CNCC(O)Cn1c2ccccc2c2ccccc21 (stereo not drawn) [MLS000391556-01] |  | -4.4643 M | 34.3 µM |  |  |  |  |  |  | activity at 1 µM [1, 5]: 115%; activity at 1 µM [1, 6]: 98%; activity at 3 µM [1, 7]: 107%; activity at 3 µM [1, 8]: 96%; HepG2 1uM growth rep1 (HepG2-A16-CD81EGFP cells): 97%; HepG2 1uM growth rep2 (HepG2-A16-CD81EGFP cells): 92%; HepG2 3uM growth rep1 (HepG2-A16-CD81EGFP cells): 92%; HepG2 3uM growth rep2 (HepG2-A16-CD81EGFP cells): 93%
12 | CN1C2CCC1/C(=C/c1ccccn1)C(=O)/C2=C\c1ccccn1 [MLS000702810-01] |  | -4.8143 M | 15.3 µM |  |  |  |  |  |  | Max Resp (signal direction of the dose response) ([1]; Method 1, Decrease = decreasing P. berghei viability with dose, Increase = increasing signal, Inactive = no dose response): Decrease; AC50 ([1]; Method 1, Hill fit, 50% of maximum activity response, read-out: AC50): 0.794 µM; AC50 ([1]; Method 1, log10 of molar AC50 from Hill fit, read-out: Log AC50 (converted)): 0.794 µM; viability at 48 h (in vitro [4]): 76.4%; viability at 48 h, 1 µM (in vitro [4]): 76.4%
13 | CCCN(CCC)CCCN=C(S)Nc1ccc2nc(N3CCCC3)cc(C)c2c1 [MLS000730709-01] |  | -4.3643 M | 43.2 µM | 141% | 128% | 67% | 66% | 112% | 103% | 
14 | CC(C)CN(Cc1cc(=O)oc2cc(-c3ccccc3)c(O)cc12)CC(C)C [MLS000779012-01] |  | -4.3643 M | 43.2 µM | 87% | 88% | 59% | 60% | 98% | 101% | 
